This experiment addresses T1, horseradish peroxidase (HRP) (Armoracia rusticana, UniProt P00433).
T1 construct: gene PRXC1A
T1 sequence (P00433 31-338): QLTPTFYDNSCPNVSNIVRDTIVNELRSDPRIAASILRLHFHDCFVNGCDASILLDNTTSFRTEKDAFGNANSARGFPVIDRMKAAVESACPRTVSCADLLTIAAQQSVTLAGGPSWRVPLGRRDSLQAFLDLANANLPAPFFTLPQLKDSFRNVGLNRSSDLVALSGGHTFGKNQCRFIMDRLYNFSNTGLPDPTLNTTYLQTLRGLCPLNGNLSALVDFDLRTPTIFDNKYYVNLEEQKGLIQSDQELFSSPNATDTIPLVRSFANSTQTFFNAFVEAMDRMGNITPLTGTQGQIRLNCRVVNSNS
Briefly: fluorescence plate reader ([…] nm), Michaelis-Menten fit. It counts as biochemical. Particulars: free HRP added to degraded Fe-fum NPs (citrate buffer); 2500 μM H2O2; Amplex UltraRed 0-100 μM.

In general, Km refers to the concentration of substrate that gives half-maximal velocity.

For the substance Amplex UltraRed, the Km stood at 182 ± 73 µM.

(Values after publication PMC9558304, “Biomimetic Mineralization of Iron-Fumarate Nanoparticles for Protective Encapsulation and Intracellular Delivery of Proteins” (Chemistry of Materials, 2022).)
